Source: PMC5804415, “Comparison of ^68Ga-DOTA-Siglec-9 and ^18F-Fluorodeoxyribose-Siglec-9: Inflammation Imaging and Radiation Dosimetry” (Contrast Media & Molecular Imaging, 2017)
Positions of bridges follow the written chain, without caps; N, C: chain ends. Residues, ends and D or L forms follow the SMILES beside them. *: point of attachment. X1 = O=C(CON=C[C@H](O)[C@H](O)[C@H](O)CF)*; AEEA = NCCOCCOCC(=O)O

Experiments:
[1] = tested on: LDLR^−/−ApoB^100/100 atherosclerotic mice; experiment: PET/CT imaging of atherosclerotic mice; format: in vivo, mouse; conditions: atherosclerotic LDLR^−/−ApoB^100/100 mice, 10–20 min after injection, mean ± SD, n = 2
Method: Six-month-old atherosclerotic low-density lipoprotein receptor-deficient mice (weight, 27 ± 4.1 g; n = 19) expressing only apolipoprotein B100 (LDLR^−/−ApoB^100/100, strain #003000; Jackson Laboratory, Bar Harbor, ME, USA) were fed for 4 months with a Western-type diet. Two-month-old C57BL/6N mice (weight, 24 ± 2.2 g; n = 13) fed with a regular chow served as controls.
A subset of mice (two atherosclerotic, two controls) were injected with 4.7 ± 1.1 MBq of ^18F-FDR-Siglec-9 and imaged with an Inveon Multimodality PET/CT (Siemens, Medical Solutions, Knoxville, TN, USA). Dynamic PET images were acquired for 60 min, followed by CT with a contrast agent (eXIATM160XL, Binitio Biomedical Inc., Ottawa, ON, Canada). The PET images were reconstructed with OSEM3D (frames 5 × 60 s, 3 × 300 s, 1 × 600 s, […]).
Quantitative PET image analysis was performed by defining ROIs in the heart left ventricle (blood pool) and aortic arch as identified on the basis of the CT angiography by using the Inveon Research Workplace software (Siemens Medical Solutions, Knoxville, TN, USA). Time frames 10–20 min after injection were used for PET quantification, as previously reported in the same mouse model using ^68Ga-DOTA-Siglec-9 [4]. The results within ROIs were expressed as SUV and target-to-background ratio (SUVmax,aortic arch/SUVmean,blood).

[2] = tested on: atherosclerotic plaques in LDLR^−/−ApoB^100/100 mouse aorta; experiment: Autoradiography of aortic cryosections of atherosclerotic mice; format: in vivo; conditions: LDLR^−/−ApoB^100/100 mice, n = 12, mean ± SD
Method: Autoradiography was used to study the distribution of radioactivity in the aorta in more detail, as described previously. After careful superimposition of the autoradiographs and H&E stained images, the count densities of 540 ROIs (185: plaques, 241: normal vessel walls, and 114: adventitia) were analyzed using Tina 2.1 software. The autoradiography results were calculated as the photostimulated luminescence per unit area (PSL/mm^2) normalized for injected radioactivity dose, and as ratios between the atherosclerotic plaque, normal vessel wall, and adventitia.

CC(C)C[C@@H]1NC(=O)CNC(=O)[C@H](CCCNC(=N)N)NC(=O)[C@H](Cc2c[nH]c3ccccc23)NC(=O)[C@H](CO)NC(=O)[C@H](CC(C)C)NC(=O)[C@H](CO)NC(=O)[C@H](CC(C)C)NC(=O)[C@H](CCCNC(=N)N)NC(=O)[C@H](C)NC(=O)[C@@H](NC(=O)COCCOCCNC(=O)CON=C[C@H](O)[C@H](O)[C@H](O)CF)CSSC[C@@H](C(=O)N2CCC[C@H]2C(=O)N[C@@H](CO)C(=O)N[C@@H](CCCCN)C(=O)O)NC(=O)[C@H](CC(C)C)NC(=O)[C@H]([C@@H](C)O)NC1=O [^18F-FDR-Siglec-9] ({X1-AEEA}-CARLSLSWRGLTLCPSK-OH; disulfide 1-14; N-terminus and C-terminus assumed)
target-to-background ratio (SUVmax,aortic arch/SUVmean,blood) [1]: 1.6 ± 0.078
plaque-to-adventitia ratio [2]: 2.2 ± 0.53
plaque-to-healthy vessel wall ratio [2]: 1.9 ± 0.23
